Measurements published in PubChem BioAssay (NCI).
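Protocol summary: plate cells (96-well), add compound at 5 concentrations, incubate 48 h, interpolate endpoints linearly. GI50 = concentration required for 50% inhibition of growth. TGI denotes the concentration required for complete inhibition of growth.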

Legend:
Test in all cases: NCI-60 cell line screen, 48 h
UACC-62 melanoma = test system: UACC-62 melanoma
OVCAR-3 ovarian = test system: OVCAR-3 ovarian
SF-539 CNS = test system: SF-539 CNS
SK-OV-3 ovarian = test system: SK-OV-3 ovarian
SNB-75 CNS = test system: SNB-75 CNS
UACC-257 melanoma = test system: UACC-257 melanoma
HT29 colon = test system: HT29 colon
RXF 393 renal = test system: RXF 393 renal
OVCAR-8 ovarian = test system: OVCAR-8 ovarian
ACHN renal = test system: ACHN renal
SNB-19 CNS = test system: SNB-19 CNS
HOP-92 NSCLC = test system: HOP-92 NSCLC
MDA-MB-435 = test system: MDA-MB-435
M14 melanoma = test system: M14 melanoma
MOLT-4 leukemia = test system: MOLT-4 leukemia
SF-295 CNS = test system: SF-295 CNS
OVCAR-4 ovarian = test system: OVCAR-4 ovarian
OVCAR-5 ovarian = test system: OVCAR-5 ovarian
SW-620 colon = test system: SW-620 colon
HCC-2998 colon = test system: HCC-2998 colon
K-562 leukemia = test system: K-562 leukemia
BT-549 breast = test system: BT-549 breast
HL-60(TB) leukemia = test system: HL-60(TB) leukemia
SK-MEL-28 melanoma = test system: SK-MEL-28 melanoma
NCI-H460 lung = test system: NCI-H460 lung
HCT-116 colon = test system: HCT-116 colon
RPMI-8226 leukemia = test system: RPMI-8226 leukemia
SK-MEL-2 melanoma = test system: SK-MEL-2 melanoma
DU-145 prostate = test system: DU-145 prostate
CAKI-1 renal = test system: CAKI-1 renal
SF-268 CNS = test system: SF-268 CNS
U251 CNS = test system: U251 CNS
CCRF-CEM leukemia = test system: CCRF-CEM leukemia
TK-10 renal = test system: TK-10 renal
IGROV1 ovarian = test system: IGROV1 ovarian
NCI-H226 lung = test system: NCI-H226 lung
SK-MEL-5 melanoma = test system: SK-MEL-5 melanoma
COLO 205 colon = test system: COLO 205 colon
786-0 renal = test system: 786-0 renal
MCF7 breast = test system: MCF7 breast
A498 renal = test system: A498 renal
SR leukemia = test system: SR leukemia
HS 578T breast = test system: HS 578T breast
MDA-MB-231 breast = test system: MDA-MB-231 breast
NCI/ADR-RES ovarian = test system: NCI/ADR-RES ovarian
NCI-H522 lung = test system: NCI-H522 lung
SN12C renal = test system: SN12C renal
HCT-15 colon = test system: HCT-15 colon
KM12 colon = test system: KM12 colon
MALME-3M melanoma = test system: MALME-3M melanoma
EKVX NSCLC = test system: EKVX NSCLC
PC-3 prostate = test system: PC-3 prostate
A549 NSCLC = test system: A549 NSCLC
T-47D breast = test system: T-47D breast
UO-31 renal = test system: UO-31 renal
HOP-62 NSCLC = test system: HOP-62 NSCLC
LOX IMVI melanoma = test system: LOX IMVI melanoma

Structure (SMILES): NS(=O)(=O)c1cccc(Nc2nc(SCC(=O)c3ccc([N+](=O)[O-])cc3)nc3ccccc23)c1
- GI50 (UACC-62 melanoma): 16.3 µM
- TGI (UACC-62 melanoma): 37.3 µM
- GI50 (OVCAR-3 ovarian): 19.6 µM
- TGI (OVCAR-3 ovarian): 72.9 µM
- GI50 (SF-539 CNS): 31.3 µM
- TGI (SF-539 CNS): > 100 µM
- GI50 (SK-OV-3 ovarian): 63.2 µM
- TGI (SK-OV-3 ovarian): > 100 µM
- GI50 (SNB-75 CNS): > 100 µM
- TGI (SNB-75 CNS): > 100 µM
- GI50 (UACC-257 melanoma): 30.1 µM
- TGI (UACC-257 melanoma): > 100 µM
- GI50 (HT29 colon): 38.8 µM
- TGI (HT29 colon): > 100 µM
- GI50 (RXF 393 renal): 23.2 µM
- TGI (RXF 393 renal): > 100 µM
- GI50 (OVCAR-8 ovarian): 25.3 µM
- TGI (OVCAR-8 ovarian): > 100 µM
- GI50 (ACHN renal): 30.6 µM
- TGI (ACHN renal): > 100 µM
- GI50 (SNB-19 CNS): > 100 µM
- TGI (SNB-19 CNS): > 100 µM
- GI50 (HOP-92 NSCLC): 14 µM
- TGI (HOP-92 NSCLC): > 100 µM
- GI50 (MDA-MB-435): 44.9 µM
- TGI (MDA-MB-435): > 100 µM
- GI50 (M14 melanoma): 31.6 µM
- TGI (M14 melanoma): > 100 µM
- GI50 (MOLT-4 leukemia): 12.9 µM
- TGI (MOLT-4 leukemia): 45.1 µM
- GI50 (SF-295 CNS): 38.3 µM
- TGI (SF-295 CNS): > 100 µM
- GI50 (OVCAR-4 ovarian): 26.6 µM
- TGI (OVCAR-4 ovarian): > 100 µM
- GI50 (OVCAR-5 ovarian): > 100 µM
- TGI (OVCAR-5 ovarian): > 100 µM
- GI50 (SW-620 colon): 64.2 µM
- TGI (SW-620 colon): > 100 µM
- GI50 (HCC-2998 colon): 31.7 µM
- TGI (HCC-2998 colon): > 100 µM
- GI50 (K-562 leukemia): 23.6 µM
- TGI (K-562 leukemia): > 100 µM
- GI50 (BT-549 breast): 11.3 µM
- TGI (BT-549 breast): 51.5 µM
- GI50 (HL-60(TB) leukemia): 22.2 µM
- TGI (HL-60(TB) leukemia): 64.3 µM
- GI50 (SK-MEL-28 melanoma): 34.9 µM
- TGI (SK-MEL-28 melanoma): > 100 µM
- GI50 (NCI-H460 lung): 26.2 µM
- TGI (NCI-H460 lung): > 100 µM
- GI50 (HCT-116 colon): 31.3 µM
- TGI (HCT-116 colon): > 100 µM
- GI50 (RPMI-8226 leukemia): 16.1 µM
- TGI (RPMI-8226 leukemia): 83 µM
- GI50 (SK-MEL-2 melanoma): 14.4 µM
- TGI (SK-MEL-2 melanoma): 44 µM
- GI50 (DU-145 prostate): 28.7 µM
- TGI (DU-145 prostate): > 100 µM
- GI50 (CAKI-1 renal): 32.1 µM
- TGI (CAKI-1 renal): > 100 µM
- GI50 (SF-268 CNS): 43.7 µM
- TGI (SF-268 CNS): > 100 µM
- GI50 (U251 CNS): 58.2 µM
- TGI (U251 CNS): > 100 µM
- GI50 (CCRF-CEM leukemia): 20.3 µM
- TGI (CCRF-CEM leukemia): > 100 µM
- GI50 (TK-10 renal): 54.5 µM
- TGI (TK-10 renal): > 100 µM
- GI50 (IGROV1 ovarian): 24 µM
- TGI (IGROV1 ovarian): > 100 µM
- GI50 (NCI-H226 lung): 21.2 µM
- TGI (NCI-H226 lung): 70.8 µM
- GI50 (SK-MEL-5 melanoma): 22.3 µM
- TGI (SK-MEL-5 melanoma): 88.1 µM
- GI50 (COLO 205 colon): 40.3 µM
- TGI (COLO 205 colon): > 100 µM
- GI50 (786-0 renal): 48.5 µM
- TGI (786-0 renal): > 100 µM
- GI50 (MCF7 breast): 12.4 µM
- TGI (MCF7 breast): > 100 µM
- GI50 (A498 renal): 38.4 µM
- TGI (A498 renal): > 100 µM
- GI50 (SR leukemia): 21.1 µM
- TGI (SR leukemia): > 100 µM
- GI50 (HS 578T breast): 35.2 µM
- TGI (HS 578T breast): > 100 µM
- GI50 (MDA-MB-231 breast): > 100 µM
- TGI (MDA-MB-231 breast): > 100 µM
- GI50 (NCI/ADR-RES ovarian): > 100 µM
- TGI (NCI/ADR-RES ovarian): > 100 µM
- GI50 (NCI-H522 lung): 20.1 µM
- TGI (NCI-H522 lung): 89.6 µM
- GI50 (SN12C renal): 40.9 µM
- TGI (SN12C renal): > 100 µM
- GI50 (HCT-15 colon): 38.7 µM
- TGI (HCT-15 colon): > 100 µM
- GI50 (KM12 colon): 37.6 µM
- TGI (KM12 colon): > 100 µM
- GI50 (MALME-3M melanoma): 44.5 µM
- TGI (MALME-3M melanoma): > 100 µM
- GI50 (EKVX NSCLC): 32.9 µM
- TGI (EKVX NSCLC): > 100 µM
- GI50 (PC-3 prostate): 20.2 µM
- TGI (PC-3 prostate): > 100 µM
- GI50 (A549 NSCLC): 32 µM
- TGI (A549 NSCLC): > 100 µM
- GI50 (T-47D breast): 9.95 µM
- TGI (T-47D breast): 65.4 µM
- GI50 (UO-31 renal): 32.6 µM
- TGI (UO-31 renal): > 100 µM
- GI50 (HOP-62 NSCLC): 28.8 µM
- TGI (HOP-62 NSCLC): > 100 µM
- GI50 (LOX IMVI melanoma): 31.4 µM
- TGI (LOX IMVI melanoma): > 100 µM
